Test results: patent US20240140948A1, “PYRIDOPYRIMIDINE DERIVATIVES AS KRAS INHIBITORS” (BETA PHARMA, INC., priority 2021, published 2024)
Read-outs that look alike come from different tables or passages of the source.

Key:
[1] = molecular target: T1, KRAS G12C (Homo sapiens, UniProt P01116, G12C); assay: KRAS G12C/SOS1 Nucleotide Exchange Assay (SOS1-mediated Bodipy-GDP to GTP exchange); assay type: biochemical; details: substrate Bodipy-GDP/Kras G12C, 0.5% DMSO; 30 min pre-incubation at RT; dRFU analysis method for covalent inhibitors
T1 construct: aa 2-169, expressed in E. coli; His-tag (TEV cleavable) (N); purchased Reaction Biology Corporation (RBC) SOS1: RBC cat #MSC-11-502; KRAS G12C: none printed; host or cells: E. coli
Method: The excess Bodipy-GDP is separated from loaded protein using a spin desalting column.
• 1. […] Deliver compounds in 100% DMSO into buffer using acoustic technology (Echo550; nanoliter range). • 3. […] Prepare 3× (SOS1+GTP) solution in reaction buffer. • 5. Deliver 5 μL of SOS1+GTP solution into reactions wells (deliver GTP only to column 1 for no SOS1 control). • 6.
where Yraw is defined as fluorescence at time t, Ao is the average initial fluorescence with no SOS1, and M is the minimum fluorescence at the end of the reaction at the maximum SOS1.
The background subtracted signals (no SOS1 protein wells were used as background) were converted to % activity relative to DMSO controls. Data was analyzed using GraphPad Prism 4 with “sigmoidal dose-response (variable slope)”; 4 parameters with Hill Slope. The constraints were bottom (constant equal to 0) and top (must be less than 120).

[2] = Pharmacokinetics in male CD-1 mice; assay type: in vivo; details: for MRT inf: read-out: MRT0-inf; for MRT last: read-out: MRT0-last
Method: The pharmacokinetic profile of the Example 2 (compound la) was determined in male CD-1 mice by WuXi AppTec Co., Ltd., 1318 Wuzhong Avenue, Wuzhong District, Suzhou, China, 215104.

[3] = mouse, 30 mg/kg PO, mean plasma

T1 sequence (P01116 2-169 G12C): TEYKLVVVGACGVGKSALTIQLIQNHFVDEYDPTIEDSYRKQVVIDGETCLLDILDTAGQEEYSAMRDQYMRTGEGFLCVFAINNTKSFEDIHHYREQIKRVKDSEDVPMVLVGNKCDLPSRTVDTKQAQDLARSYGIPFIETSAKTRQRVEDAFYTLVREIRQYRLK

## C=CC(=O)N1CCN(c2nc(OC[C@@H]3CCCN3C)nc3cc(-c4cccc5cccc(Cl)c45)cnc23)C[C@@H]1CC#N [Example 1, 2-((S)-1-Acryloyl-4-(7-(8-chloronaphthalen-1-yl)-2-(((S)-1-methylpyrrolidin-2-yl)methoxy)pyrido[3,2-d]pyrimidin-4-yl)piperazin-2-yl)acetonitrile]
[1]
  IC50: 27 nM

## C=C(F)C(=O)N1CCN(c2nc(OC[C@@H]3CCCN3C)nc3cc(-c4cccc5cccc(Cl)c45)cnc23)C[C@@H]1CC#N [Example 2, 2-((S)-4-(7-(8-Chloronaphthalen-1-yl)-2-(((S)-1-methylpyrrolidin-2-yl)methoxy)pyrido[3,2-d]pyrimidin-4-yl)-1-(2-fluoroacryloyl)piperazin-2-yl)acetonitrile]
[1]
  IC50: 63 nM
[2]; 3 mg/kg IV, mean plasma
  AUCExtra: 9.23%
  AUMCExtra: 35.2%
  Tlast: 8.00 h
[2]; 30 mg/kg PO, mean plasma
  AUCExtra: 17.1%
  AUMCExtra: 43.8%
  Tlast: 8.00 h
[2]; mouse, 3 mg/kg IV, mean plasma
  AUC(0-inf): 2450 ng·h/mL
  AUC(0-t): 2220 ng·h/mL
  C0: 1270 ng/mL
  clearance: 20.4 mL/min/kg
  MRT inf: 2.81 h
  MRT last: 2 h
[2]; mouse, 3 mg/kg IV, mean plasma, Rsq_adj 0.828 (<0.9, might not be accurately estimated)
  half-life: 113 min
[2]; mouse, 3 mg/kg IV, mean plasma, read-out: Vdss
  Vd: 3.44 L/kg
[2]; [3]
  AUC(0-inf): 7070 ng·h/mL
  AUC(0-t): 5860 ng·h/mL
  Cmax: 1220 ng/mL
  Tmax: 1 h
  half-life: 173 min
  MRT inf: 4.75 h
  MRT last: 3.22 h
[2]; mouse, plasma, 30 mg/kg PO vs 3 mg/kg IV, calculated from AUC0-inf with nominal dose, read-out: Bioavailability (% F)
  bioavailability: 28.8%
